Laboratory results published in ChEMBL document CHEMBL1909553, “Design, synthesis and biological evaluation of substituted 11H-benzo[a]carbazole-5-carboxamides as novel antitumor agents” (Eur J Med Chem, 2011).
Active and inactive are the calls of the source. The calls are words filed in the database; no cut-off is given here.

Key:
A549 = assay: Growth inhibition of human A549 cells measured after 72 hrs by SRB assay; assay type: functional, cell-based; settings: A549, 72 h
HCT-116 [1] = assay: Growth inhibition of human HCT116 cells measured after 72 hrs by SRB assay; assay type: functional, cell-based; settings: HCT-116, 72 h
HL-60 [2] = assay: Cell cycle arrest in human HL60 cells assessed as accumulation at G2/M phase at 2 uM after 24 hrs by propidium iodide staining-based flow cytometric analysis relative to control; assay type: functional
Nucleic Acid = assay: Binding affinity to linearized Escherichia coli pBR322 DNA assessed as inhibition of T4-DNA ligase-mediated circularization at 100 uM after 30 mins by agarose gel electrophoresis; assay type: nucleic-acid assay
HCT-116 [3] = assay: Antitumor activity against human HCT116 cells transplanted in nude mouse assessed as decrease in tumor volume at 15 mg/kg, iv administered three times per week for three weeks measured on day 21 (reference value: 1245 +/- 192 mm'3); assay type: functional
HCT-116 [4] = assay: Antitumor activity against human HCT116 cells transplanted in nude mouse assessed as tumor volume at 15 mg/kg, iv administered three times per week for three weeks relative to control; assay type: functional
Mus musculus = assay: Toxicity in nude mouse xenografted with human HCT116 cells assessed as body weight change at 15 mg/kg, iv administered three times a week for 3 weeks (reference value: 19.4 g); assay type: organism-based, HCT-116; parameters: dose 15 mg/kg, route intravenous; settings: in vivo, 504 h
HL-60 [5] = assay: Cell cycle arrest in human HL60 cells assessed as accumulation at G2/M phase at 8 uM after 24 hrs by propidium iodide staining-based flow cytometric analysis relative to control; assay type: functional

IC50 (A549) | IC50 (HCT-116 [1]) | Compound | other results
25.6 µM | 17.5 µM | O=C(NCCNCCO)c1cc2c3ccccc3[nH]c2c2cc(Br)ccc12 | –
> 100 µM | > 100 µM | O=C(NCCO)c1cc2c3ccccc3[nH]c2c2cc(Br)ccc12 | –
8.2 µM | 9.5 µM | CN(C)CCCNC(=O)c1cc2c3ccccc3[nH]c2c2cc(Br)ccc12 [listing 1 of 2 here] | Activity (HL-60 [2]): 61.3%
0.4 µM | 2.2 µM | CN(C)CCN1C(=O)c2cccc3c2c(cc2c4ccccc4sc32)C1=O | inhibition (Nucleic Acid): Active; Activity (HL-60 [2]): 52.48%
9.4 µM | 64.9 µM | O=C(NCCN1CCOCC1)c1cc2c3ccccc3[nH]c2c2cc(Br)ccc12 | –
10.6 µM | 11 µM | O=C(NCCN1CCCC1)c1cc2c3ccccc3[nH]c2c2cc(Br)ccc12 | –
12.1 µM | 8.8 µM | CN(C)CCNC(=O)c1cc2c3ccccc3[nH]c2c2cc(Br)ccc12 | inhibition (Nucleic Acid): Active; Activity (HL-60 [5]): 48.13%
17.5 µM | 16.2 µM | CNCCNC(=O)c1cc2c3ccccc3[nH]c2c2cc(Br)ccc12 | –

The remaining lines, values behind:

Compound | IC50 (A549) | IC50 (HCT-116 [1]) | other results
CN(C)CCNC(=O)c1cc2c3ccccc3[nH]c2c2cc(N(C)C)ccc12 | 23.1 µM | 20.1 µM | –
CN(C)CCCNC(=O)c1cc2c3ccccc3[nH]c2c2cc(Br)ccc12.O=C(O)CC(O)(CC(=O)O)C(=O)O | – | – | Activity (HCT-116 [3]): 676 mm3; T/C (HCT-116 [4]): 58.97%; Activity (Mus musculus): 16.3 g
CN(C)CCNC(=O)c1cc2c3ccccc3[nH]c2c2ccccc12 | 23.8 µM | 23.8 µM | –
CN(C)CCN1C(=O)c2cccc3cc(N)cc(c23)C1=O [AMONAFIDE] | 8.1 µM | 15.3 µM | –
CN(C)CCN1C(=O)c2cccc3cc(N)cc(c23)C1=O.O=C(O)CC(O)(CC(=O)O)C(=O)O [AMONAFIDE CITRATE] | – | – | Activity (HCT-116 [3]): 664 mm3; T/C (HCT-116 [4]): 52.74%; Activity (Mus musculus): 14.6 g
O=C(NCCN1CCCCC1)c1cc2c3ccccc3[nH]c2c2cc(Br)ccc12 | 19.5 µM | 17 µM | –
O=C(NCCN1CCNCC1)c1cc2c3ccccc3[nH]c2c2cc(Br)ccc12 | 68.4 µM | 70.3 µM | –
CN(C)CCNC(=O)c1cc2c3ccccc3[nH]c2c2cc(N)ccc12 | 38.4 µM | 36.2 µM | –
CN(C)CCCNC(=O)c1cc2c3ccccc3[nH]c2c2cc(Br)ccc12 [listing 2 of 2 here] | – | – | inhibition (Nucleic Acid): Active
